Assay results taken from paper PMC12597212, “Biaryl Phosphate‐Based Inhibitors of the Transcription Factor STAT4” (Chemmedchem, 2025).
Read-outs that look alike come from different tables or passages of the source.

Experiments:
STAT1 [1] = target: T1, STAT1 (Homo sapiens, UniProt P42224); test: Competitive fluorescence polarization (FP) assay, STAT1; format: binding
T1 sequence (P42224 1-750): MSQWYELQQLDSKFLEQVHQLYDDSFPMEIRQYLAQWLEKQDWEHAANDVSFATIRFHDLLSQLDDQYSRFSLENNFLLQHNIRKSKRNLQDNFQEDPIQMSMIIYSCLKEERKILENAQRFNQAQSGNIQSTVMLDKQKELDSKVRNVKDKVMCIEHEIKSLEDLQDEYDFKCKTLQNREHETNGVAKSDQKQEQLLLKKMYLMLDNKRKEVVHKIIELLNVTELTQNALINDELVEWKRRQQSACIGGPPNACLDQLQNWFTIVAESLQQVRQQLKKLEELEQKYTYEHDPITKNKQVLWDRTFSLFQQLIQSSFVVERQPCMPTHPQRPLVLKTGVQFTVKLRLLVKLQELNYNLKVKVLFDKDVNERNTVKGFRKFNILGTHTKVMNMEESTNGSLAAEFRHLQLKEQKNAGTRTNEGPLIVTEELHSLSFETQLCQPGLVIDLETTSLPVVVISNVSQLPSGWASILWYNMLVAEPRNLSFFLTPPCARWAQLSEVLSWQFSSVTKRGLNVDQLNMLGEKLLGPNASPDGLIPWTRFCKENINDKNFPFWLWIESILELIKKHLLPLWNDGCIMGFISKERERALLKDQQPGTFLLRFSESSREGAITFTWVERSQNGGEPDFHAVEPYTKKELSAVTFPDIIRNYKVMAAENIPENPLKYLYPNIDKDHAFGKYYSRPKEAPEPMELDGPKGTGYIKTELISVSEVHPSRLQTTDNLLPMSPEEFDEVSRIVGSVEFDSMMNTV
Protocol: (§1) Fluorescence polarization assays
(§2) STAT4; 5-carboxyfluorescein-GpYDKPHVL for STAT1; 5-carboxyfluorescein-GpYLPQTV- […]
(§3) fluorescent-labeled peptide was added. Samples were transferred to 384-well microtiter plates […]
(§4) Experiments were carried out in triplicate. Percent binding was calculated based on a logarithmic curve fit using OriginPro 8G software. Conversion of IC50 values to Ki-values was […]
(§5) Error bars represent standard deviations. […]
(§6) Experiments were carried out in triplicate. […]

STAT5a = target: T2, STAT5a (Homo sapiens, UniProt P42229); test: Competitive fluorescence polarization (FP) assay, STAT5a; format: binding
T2 sequence (P42229 1-794): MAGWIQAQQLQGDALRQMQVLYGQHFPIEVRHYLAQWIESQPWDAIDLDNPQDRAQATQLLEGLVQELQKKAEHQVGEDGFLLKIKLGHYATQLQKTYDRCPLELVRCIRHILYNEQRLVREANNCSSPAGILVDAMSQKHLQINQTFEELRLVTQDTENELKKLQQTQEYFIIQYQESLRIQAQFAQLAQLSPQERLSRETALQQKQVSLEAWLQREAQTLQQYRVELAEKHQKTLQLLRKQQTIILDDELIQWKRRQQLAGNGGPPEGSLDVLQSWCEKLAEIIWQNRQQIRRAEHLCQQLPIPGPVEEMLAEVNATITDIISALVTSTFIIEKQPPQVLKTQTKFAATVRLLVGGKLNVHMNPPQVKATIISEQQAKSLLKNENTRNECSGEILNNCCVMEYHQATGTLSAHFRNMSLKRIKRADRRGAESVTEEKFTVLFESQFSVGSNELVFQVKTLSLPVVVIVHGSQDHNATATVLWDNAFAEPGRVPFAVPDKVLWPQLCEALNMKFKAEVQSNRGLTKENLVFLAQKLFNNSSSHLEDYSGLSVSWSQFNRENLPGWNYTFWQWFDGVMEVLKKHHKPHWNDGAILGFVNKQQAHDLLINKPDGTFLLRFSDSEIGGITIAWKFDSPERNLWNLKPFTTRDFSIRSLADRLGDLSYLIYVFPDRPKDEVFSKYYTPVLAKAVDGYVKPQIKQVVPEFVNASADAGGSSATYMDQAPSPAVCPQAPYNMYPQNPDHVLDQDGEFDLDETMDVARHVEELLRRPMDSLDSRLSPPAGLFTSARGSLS
Protocol: as §1, §2, §3, §4, §5, §6

STAT5b = target: T3, STAT5b (Homo sapiens, UniProt P51692); test: Competitive fluorescence polarization (FP) assay, STAT5b; format: binding
T3 sequence (P51692 1-787): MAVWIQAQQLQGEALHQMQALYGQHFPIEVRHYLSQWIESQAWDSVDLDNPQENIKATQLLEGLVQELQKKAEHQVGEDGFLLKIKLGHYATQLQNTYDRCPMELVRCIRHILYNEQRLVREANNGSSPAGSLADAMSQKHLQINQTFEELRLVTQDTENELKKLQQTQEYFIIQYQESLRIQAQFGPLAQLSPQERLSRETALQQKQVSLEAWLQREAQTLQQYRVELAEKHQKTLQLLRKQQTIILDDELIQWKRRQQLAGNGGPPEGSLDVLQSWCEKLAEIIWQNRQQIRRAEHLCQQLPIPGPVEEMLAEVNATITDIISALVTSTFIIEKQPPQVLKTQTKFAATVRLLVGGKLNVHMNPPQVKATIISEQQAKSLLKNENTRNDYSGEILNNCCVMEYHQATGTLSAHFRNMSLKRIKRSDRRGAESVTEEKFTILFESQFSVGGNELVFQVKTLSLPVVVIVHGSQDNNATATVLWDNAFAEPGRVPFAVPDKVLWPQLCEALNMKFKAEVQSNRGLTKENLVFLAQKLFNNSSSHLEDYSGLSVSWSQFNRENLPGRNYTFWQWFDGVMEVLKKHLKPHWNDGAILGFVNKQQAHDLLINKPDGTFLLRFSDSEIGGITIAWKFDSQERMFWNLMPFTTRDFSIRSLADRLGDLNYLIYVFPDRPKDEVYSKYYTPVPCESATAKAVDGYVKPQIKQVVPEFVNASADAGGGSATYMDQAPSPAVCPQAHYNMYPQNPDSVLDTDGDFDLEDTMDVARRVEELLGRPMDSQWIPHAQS
Protocol: as §1, §2, §3, §4, §5, §6

STAT6 = target: T4, STAT6 (Homo sapiens, UniProt P42226); test: Competitive fluorescence polarization (FP) assay, STAT6; format: binding
T4 sequence (P42226 1-847): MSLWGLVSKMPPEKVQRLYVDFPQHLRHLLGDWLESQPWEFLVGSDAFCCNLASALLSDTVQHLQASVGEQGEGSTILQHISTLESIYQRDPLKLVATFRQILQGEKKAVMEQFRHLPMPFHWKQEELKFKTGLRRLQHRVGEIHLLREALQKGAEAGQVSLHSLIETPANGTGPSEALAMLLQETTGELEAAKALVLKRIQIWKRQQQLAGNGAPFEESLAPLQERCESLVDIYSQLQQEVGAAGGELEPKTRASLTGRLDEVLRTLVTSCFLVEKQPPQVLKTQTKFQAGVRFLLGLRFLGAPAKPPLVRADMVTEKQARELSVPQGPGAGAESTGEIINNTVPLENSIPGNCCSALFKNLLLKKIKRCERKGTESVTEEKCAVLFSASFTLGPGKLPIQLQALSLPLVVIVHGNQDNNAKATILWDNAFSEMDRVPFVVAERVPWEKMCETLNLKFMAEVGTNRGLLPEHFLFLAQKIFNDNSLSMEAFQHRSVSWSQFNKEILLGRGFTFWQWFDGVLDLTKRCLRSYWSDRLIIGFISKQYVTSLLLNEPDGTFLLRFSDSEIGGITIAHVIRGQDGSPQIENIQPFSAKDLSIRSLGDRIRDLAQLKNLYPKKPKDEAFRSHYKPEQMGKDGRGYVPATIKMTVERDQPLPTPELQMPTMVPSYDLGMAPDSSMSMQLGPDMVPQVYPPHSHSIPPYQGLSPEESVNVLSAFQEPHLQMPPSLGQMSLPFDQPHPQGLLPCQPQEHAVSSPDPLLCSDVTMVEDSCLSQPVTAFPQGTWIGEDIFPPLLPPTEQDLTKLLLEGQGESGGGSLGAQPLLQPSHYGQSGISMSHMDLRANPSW
Protocol: as §1, §2, §3, §4, §5, §6

STAT4 SH2 domain [2] = target: T5, STAT4 SH2 domain (Homo sapiens, UniProt Q14765); settings: FP assay; data taken from the literature, ref [1] of the Supporting Information; cited from earlier work
T5 sequence (Q14765 1-748): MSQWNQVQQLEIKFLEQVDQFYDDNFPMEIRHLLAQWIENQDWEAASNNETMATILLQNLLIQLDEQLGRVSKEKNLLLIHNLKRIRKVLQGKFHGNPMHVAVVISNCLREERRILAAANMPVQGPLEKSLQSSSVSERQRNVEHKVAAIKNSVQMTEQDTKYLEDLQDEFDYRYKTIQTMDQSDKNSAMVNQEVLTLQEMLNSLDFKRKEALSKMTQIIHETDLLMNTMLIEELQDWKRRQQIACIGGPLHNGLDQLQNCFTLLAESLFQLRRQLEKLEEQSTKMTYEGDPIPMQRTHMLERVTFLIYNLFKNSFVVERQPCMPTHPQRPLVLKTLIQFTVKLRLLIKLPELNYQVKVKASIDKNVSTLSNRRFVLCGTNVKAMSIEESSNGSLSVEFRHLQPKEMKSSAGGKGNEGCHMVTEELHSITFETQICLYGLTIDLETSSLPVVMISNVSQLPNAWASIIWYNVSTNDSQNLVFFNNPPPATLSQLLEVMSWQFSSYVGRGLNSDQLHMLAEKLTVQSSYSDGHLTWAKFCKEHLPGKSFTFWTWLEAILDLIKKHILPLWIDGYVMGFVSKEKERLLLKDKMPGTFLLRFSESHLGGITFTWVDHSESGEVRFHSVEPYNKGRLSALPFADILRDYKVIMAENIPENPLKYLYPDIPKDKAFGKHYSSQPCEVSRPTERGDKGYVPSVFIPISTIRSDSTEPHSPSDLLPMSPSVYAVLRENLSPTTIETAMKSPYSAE

STAT1 [3] = target: T1, STAT1; settings: FP assay; data taken from the literature, ref [1] of the Supporting Information; cited from earlier work
STAT4 SH2 domain [4] = target: T5, STAT4 SH2 domain; test: Competitive fluorescence polarization (FP) assay, STAT4; format: binding; settings: for IC50: 28 nM STAT4, 10 nM tracer peptide; for Ki: Ki calculated from IC50, mean ± SD, n = 3
Protocol: as §1
Competitive fluorescence polarization assays were carried as previously described.[1] Proteins […]
fluorescent-labeled peptides were used as tracers: 5-carboxyfluorescein-GpYLPQNID-OH for STAT4; 5-carboxyfluorescein-GpYDKPHVL for STAT1; 5-carboxyfluorescein-GpYLPQTV-NH2 for STAT3; 5-carboxyfluorescein-GpYLVLDKW for STAT5a/b, and 5-carboxyfluorescein- […]
mM Tris (pH 8.0), 50 mM NaCl, 1 mM EDTA, 1 mM DTT, 0.1 % Nonidet P-40 substitute, 2 %
DMSO. Proteins and test compound were incubated for 1 h at room temperature before the […]
(1 picture or pasted object on this page, not shown here) […]
fluorescent-labeled peptide was added. Samples were transferred to 384-well microtiter plates and fluorescence polarization was read after an additional 60 min of incubation time.
Experiments were carried out in triplicate. Percent binding was calculated based on a logarithmic curve fit using OriginPro 8G software. Conversion of IC50 values to Ki-values was achieved using the published equation[2] embedded in the corresponding Excel spread sheet […]
https://websites.umich.edu/~shaomengwanglab/software/calc_ki/ind ex.html.
as §5, §6

[5] = Ki calculated from IC50, mean ± SD, n = 3

Structure (SMILES): O=P(O)(O)Oc1ccc(-c2cccc3ccccc23)cc1 [compound 10]
- IC50 (STAT1 [1]; 80-92 nM STAT1, 10 nM tracer peptide): 38 µM
- Ki (STAT1 [1]; [5]): 17 ± 1 µM
- IC50 (STAT5a; 125-177 nM STAT5a, 10 nM tracer peptide): 8.1 µM
- Ki (STAT5a; [5]): 4 ± 0.3 µM
- IC50 (STAT5b; 59-85 nM STAT5b, 10 nM tracer peptide): 89 µM
- Ki (STAT5b; [5]): 43 ± 4 µM
- IC50 (STAT6; 106 nM STAT6, 10 nM tracer peptide): 19.1 µM
- Ki (STAT6; [5]): 9.4 ± 1.9 µM

Structure (SMILES): O=P(O)(O)Oc1ccc(-c2ccccc2)cc1F [compound 13]
- IC50 (STAT4 SH2 domain [2]): 1.21 µM
- IC50 (STAT1 [3]): 12.8 µM

Structure (SMILES): O=P(O)(O)Oc1ccc(-c2ccsc2)cc1F [8d]
- IC50 (STAT4 SH2 domain [4]): 0.52 µM
- Ki (STAT4 SH2 domain [4]): 0.26 ± 0.02 µM

Structure (SMILES): O=P(O)(O)Oc1ccc(-c2ccccc2)cc1 [compound 1, p‐biphenyl phosphate]
- IC50 (STAT1 [3]): 16.4 µM

Structure (SMILES): O=P(O)(O)Oc1ccc(-c2cccs2)cc1F [8e]
- IC50 (STAT4 SH2 domain [4]): 0.6 µM
- Ki (STAT4 SH2 domain [4]): 0.3 ± 0.003 µM
